US9359322B2, “C-linked glucuronide of N-(4-hydroxybenzyl) retinone, analogs thereof, and methods of using the same to inhibit neoplastic cell growth” (Wisconsin Alumni Research Foundation, priority 2005, dated 2016)
Marks after values point to notes of the source that are not given here.

What was measured:
[1] = Femur bone mineral content; type: in vivo, rat; conditions: end of feeding study; FIG. 2B
Text: Bone Mineral Content. The femur was disarticulated from the leg, and the adhering soft tissue was removed by dissection. Femurs were scanned using the Lunar PIXImus 2 system (Model X2608, General Electric using the LUNAR software version 1.45), and control measurements were made using the small animal quality control phantom. Femurs were scanned 5 times each with re-positioning at each measure. The average value of the bone mineral content (BMC) in grams for each animal is reported as one independent measure.

CYP26B1 mRNA [2] = conditions: vitamin A-deficient rats; background; cited from earlier work
[3] = background statement; cited from earlier work
CYP26A1 mRNA = experiment: Induction of CYP26A1 mRNA in liver (Q-PCR); type: in vivo, rat; conditions: at sacrifice, retinoid-fed rats, 2 mmol/kg diet; FIG. 4
[4] = Body weight change during retinoid feeding; type: in vivo, rat; conditions: relative to baseline body weight over 22 days; 2 mmol/kg diet
Experimental: (§1) Animal Studies: Mammary tumors were induced by intragastric intubation of 50-day old female Sprague-Dawley rats (Harlan Industries, Indianapolis, Ind.) with a single dose of 15 mg DMBA in 1.0 ml of sesame oil per rat. The rats were then maintained on a powdered Teklad 22/5 rodent chow diet (W) 8640 (Harlan Industries, Indianapolis, Ind.), and allowed food and water ad libitum. Four months later, rats which had developed palpable tumors were randomly assigned to the experimental groups (4 rats/group). The retinoid-treated groups were fed diets supplemented with 2 mmol/kg diet of atRA, 4-HPR, or 4-HBRCG, respectively. The retinoids were added to the diet in a vehicle consisting of 25 ml of ethanol: tricaprylin (1:4 v/v) plus 2% (w/v) of α-tocopherol as previously described.^9 This vehicle was also added to the control diet. The additives were blended into the chow diets using a Hobart food mixer. The diets were fed in stainless steel feeders designed with food hoppers. The food was replaced weekly with freshly prepared diets. Food consumption was determined once weekly, and from that the average daily consumption/rat was estimated. These diets were continuously fed for 22 days. Animals were also weighted weekly and monitored for general health status and signs of possible toxicity due to treatment.
(§2) Baseline measurement of initial tumor sizes, numbers and rat body weights were determined immediately before commencement of treatments, and final measurements were recorded just prior to sacrifice of the animals. Animals were palpated for tumors twice weekly and tumor diameters were measured weekly by a micrometer caliper. Tumor volumes were calculated using the formula [V= 4/3 πr^3] where r is one-half the mean of the sum of the largest diameter and the axis at right angle to it. All tumors as well as lungs, liver, kidney and femur were excised at the end of the experiment for chemical and histopathological evaluation. Blood samples were also taken from each animal for determination of plasma retinol and triglyceride levels.

[5] = Terminal plasma drug levels (plasma retinoid assay, HPLC); type: in vivo, rat; conditions: day 22 of treatment; 2 mmol/kg diet; ± SEM
Experimental: (§3) Plasma Retinoid Assay. To 500 μL of plasma was added 150 μL of ethanol containing 0.75 μg of internal standard (N-(4-chlorophenyl) retinamide). After mixing 30 sec., 500 μL of ethyl acetate was added followed by 1 min. of mixing and centrifugation for 5 minutes at 1000 rpm in an IEC CL centrifuge. The ethyl acetate layer was removed and syringe filtered through a 0.45 um filter. The ethyl acetate extraction was repeated two more times. The combined extracts were evaporated and the residue reconstituted in 100 μL of methanol. The methanol extract (20 μL) was analyzed by HPLC on a Beckman Instruments model 127 instrument equipped with a model 166 UV detector. Chromatography was done on a precolumn equipped 250×4.6 mm Bechman Ultrasphere ODS column with an 85% methanol/water mobile phase (both containing 10 mM ammonium acetate) flowing at 1 mL/min. Analysis for both internal standard and retinol was conducted at 350 nm and internal standard recoveries and retinol levels were determined by comparison with standard curves, with adjustment of the retinol level based on recovery. Recoveries of internal standard averaged ca. 78%. […] In the 4-HPR treated group, plasma levels of this retinoid were evaluated simultaneously in the same samples as above. In order to avoid interfering substances, plasma treatment retinoid levels for RA and 4-HBRCG were measured using the above system and a step gradient of 75% methanol for 15 min. followed by 85% methanol for 40 minutes.

[6] = Plasma triglyceride measurement; type: in vivo, rat; conditions: 2 mmol/kg diet, 22 days; FIG. 2A
Experimental: Plasma Triglyceride Measurement. Bloods were drawn from anesthetized animals in the presence of EDTA as an anticoagulant, and the resulting plasma was used for the measurement of plasma “true” triglyceride levels using a kit from Sigma-Aldrich (Saint Louis, Mo.). Briefly, the total plasma triglyceride and glycerol concentrations were determined, and the glycerol component was subtracted from the total plasma triglyceride measurement to obtain the “true” serum triglyceride concentration.

[7] = vitamin A-deficient rats; cited from earlier work
[8] = tested on: DMBA-induced rat mammary tumor; conditions: cited from earlier work
CYP26B1 mRNA [9] = experiment: Induction of CYP26B1 mRNA in lung (Q-PCR); type: in vivo, rat; conditions: at sacrifice, retinoid-fed rats, 2 mmol/kg diet; data not shown
[10] = biological target: serum retinol-binding protein, RBP (Homo sapiens, UniProt P02753); conditions: cited from earlier work
RARβ = biological target: T1, RARβ (Homo sapiens, UniProt P10826); conditions: cited from earlier work
T1 sequence (P10826 1-455): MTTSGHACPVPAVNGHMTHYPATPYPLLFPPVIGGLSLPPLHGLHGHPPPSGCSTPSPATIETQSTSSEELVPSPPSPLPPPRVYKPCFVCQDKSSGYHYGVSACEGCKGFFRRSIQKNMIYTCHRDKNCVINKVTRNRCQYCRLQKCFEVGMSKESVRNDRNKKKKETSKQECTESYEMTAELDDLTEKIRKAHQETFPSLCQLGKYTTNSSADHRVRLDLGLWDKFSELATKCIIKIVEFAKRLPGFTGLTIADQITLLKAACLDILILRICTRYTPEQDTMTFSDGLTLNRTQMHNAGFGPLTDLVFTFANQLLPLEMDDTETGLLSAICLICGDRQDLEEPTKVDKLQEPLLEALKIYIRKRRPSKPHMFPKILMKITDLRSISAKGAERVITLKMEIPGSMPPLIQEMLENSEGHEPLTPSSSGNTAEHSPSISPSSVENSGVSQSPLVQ

RARγ = biological target: T2, RARγ (Homo sapiens, UniProt P13631); conditions: cited from earlier work
T2 sequence (P13631 1-454): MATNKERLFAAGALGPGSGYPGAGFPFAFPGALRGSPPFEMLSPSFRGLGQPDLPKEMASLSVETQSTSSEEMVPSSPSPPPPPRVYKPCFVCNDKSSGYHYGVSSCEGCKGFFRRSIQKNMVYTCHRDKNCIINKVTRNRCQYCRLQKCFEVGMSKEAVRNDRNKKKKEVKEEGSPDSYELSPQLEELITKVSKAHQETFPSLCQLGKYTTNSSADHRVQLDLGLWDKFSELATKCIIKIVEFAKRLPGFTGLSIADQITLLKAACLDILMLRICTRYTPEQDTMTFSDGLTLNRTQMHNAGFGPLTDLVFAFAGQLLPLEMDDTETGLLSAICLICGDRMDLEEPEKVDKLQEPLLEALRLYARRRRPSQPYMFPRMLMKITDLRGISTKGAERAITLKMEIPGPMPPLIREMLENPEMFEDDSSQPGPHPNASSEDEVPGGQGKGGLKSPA

[11] = tested on: DMBA-induced rat mammary tumor; experiment: DMBA-induced rat mammary tumor model, retinoid-containing diets; type: in vivo
Experimental: Preliminary evaluation of the mammary tumor chemotherapeutic activity of 4-HBRCG (7) was conducted, and its toxicity profile was also assessed. As previously described,^7, 12 tumor-bearing female rats (treated ca. 50 days earlier with 7,12-dimethylbenz(a)anthracene [DMBA]) were fed the control or retinoid-containing diets (RA (2), 4-HPR (3) or 4-HBRCG (7)) at 2 mmole/kg diet for 22 days.
as §1, §2

[12] = Plasma retinol level (HPLC); type: in vivo, rat; conditions: 2 mmol/kg diet
Experimental: as §2, §3

[13] = cited from earlier work
[14] = number of individual tumors, 2 mmol/kg diet, 22 days

SMILES: CC1=C(/C=C/C(C)=C/C=C/C(C)=C/C(=O)Nc2ccc(O)cc2)C(C)(C)CCC1 [4-HPR (3), N-(4-hydroxyphenyl) retinamide]
- Effect on femur bone mineral content vs control [1]: showed no such effect
- Induction of CYP26B1 mRNA expression in lungs (CYP26B1 mRNA [2]): induces CYP26B1 mRNA expression in a RA-like manner
- Teratogenicity relative to RA [3]: 100 times less teratogenic than RA
- Induction of CYP26A1 mRNA in liver (CYP26A1 mRNA): 37 fold above control
- % Weight change [4]: +3%
- Plasma retinoid concentration (terminal plasma drug level) [5]: 0.67 ± 0.07 µg/mL
- Effect on serum triglyceride concentration [6]: small but insignificant increase
- Hydrolysis to liberate retinoic acid [7]: is hydrolyzed to liberate retinoic acid
- Chemotherapeutic activity in DMBA-induced rat mammary tumor model [8]: equiactive chemotherapeutics
- Induction of CYP26B1 mRNA in lung (CYP26B1 mRNA [9]): 20 fold above control
- Binding to RBP [10]: equivalent binding to RBP
- Times less potent than atRA in competing for [3H]atRA binding to RARβ (RARβ): ~3000 times
- Times less able than atRA to compete for binding to RARγ (RARγ): 2500 times
- % Change in tumor volume from baseline ([11]; 2 mmol/kg diet for 22 days): −33 ^d %
- Final tumor volume ([11]; 2 mmol/kg diet for 22 days, mean ± SEM): 0.08 ± 0.02 cm^3
- Initial tumor volumes ([11]; baseline before treatment, mean ± SEM): 0.12 ± 0.03 cm^3
- Complete regression (tumors that totally disappeared) [11, 14]: 1
- No effect [11, 14]: 3
- Partial regression (tumors with 25-75% decrease in volume) [11, 14]: 15
- New tumors ([11]; number of tumors, 2 mmol/kg diet, 22 days): 0
- Effect on blood retinol [12]: the same amount of 4-HPR did
- Plasma retinol ([12]; day 22 of treatment, mean ± SEM): 0.21 ± 0.05 ^e μg/ml

SMILES: CC1=C(/C=C/C(C)=C/C=C/C(C)=C/C(=O)Cc2ccc(O)cc2)C(C)(C)CCC1 [4-HBR, 4-hydroxybenzyl retinone]
- Effect on blood retinol levels [13]: does not lower blood retinol levels
- Chemotherapeutic activity in DMBA-induced rat mammary tumor model [8]: equiactive chemotherapeutics
- Binding to RBP [10]: equivalent binding to RBP
